This note sets out measurements from patent publication US20110230659A1, “CYCLOBUTYL PURINE DERIVATIVE, ANGIOGENESIS PROMOTING AGENT, LUMEN FORMATION PROMOTING AGENT, NEUROCYTE GROWTH PROMOTING AGENT, AND DRUG” (NATIONAL UNIVERSITY CORPORATION KAGAWA UNIVERSITY, priority 2008, published 2011).

This experiment has as its system human umbilical vein endothelial cells (HUVEC) and normal human dermal fibroblasts. The experiment can be described thus: Measurement of lumen formation (angiogenesis kit, CD31 immunostaining, lumen area). In kind it is cell-based.

Turning to `Nc1nc(Cl)nc2c1ncn2C1CC(CO)C1CO` (stereo not drawn) [2-Cl—C.OXT-A, 6-amino-2-chloro-9-[trans-trans-2,3-bis(hydroxymethyl)cyclobutyl]purine], where the note is “Example 7, medium No. 6: only 2-Cl—C.OXT-A 10 μmol/l”, the “relative value of lumen area compared with control” value is given as “about 3 fold”. Also, for the setting “Example 9, medium No. 17: 2-Cl—C.OXT-A 10 μmol/l”, the lumen area result is recorded as “increased markedly”. The “relative value of lumen area” value (final concentration 100 nmol/l to 1 mmol/l, versus control) is “larger than that of the control” and the “relative value of lumen area” value (final concentration 100 μmol/l, highest activity) was determined as 3.8. Further, for the setting “final concentration 10 μmol/l to 1 mmol/l, 10 days, versus control”, the “stained area (lumen formation, immunostaining photographs)” value is “larger than that in the control”. Besides, the “lumen formation promoting-activity compared with VEGF (relative value of lumen area)” value (final concentration 10 to 500 μmol/l, VEGF 10 ng/ml) is recorded as “higher than that in Comparative Example 7”. Also, the “lumen formation promoting-activity compared with VEGF (photographs)” value (final concentrations 10 and 100 μmol/l, VEGF 10 ng/ml) is recorded as “higher than that in Comparative Example 7”.
